Consider one molecule from PMC6692300, “Targeting HIBCH to reprogram valine metabolism for the treatment of colorectal cancer” (Cell Death & Disease, 2019).

pKd: −log10 of the molar value.

For orientation: pKd means −log10 of the Kd, conventionally taken in molar units.

This assay concerns the target T1, GFP-HIBCH (3-hydroxyisobutyryl-CoA hydrolase) (Homo sapiens, UniProt Q6NVY1).
T1 construct: GFP fusion of HIBCH
T1 sequence (Q6NVY1 1-386): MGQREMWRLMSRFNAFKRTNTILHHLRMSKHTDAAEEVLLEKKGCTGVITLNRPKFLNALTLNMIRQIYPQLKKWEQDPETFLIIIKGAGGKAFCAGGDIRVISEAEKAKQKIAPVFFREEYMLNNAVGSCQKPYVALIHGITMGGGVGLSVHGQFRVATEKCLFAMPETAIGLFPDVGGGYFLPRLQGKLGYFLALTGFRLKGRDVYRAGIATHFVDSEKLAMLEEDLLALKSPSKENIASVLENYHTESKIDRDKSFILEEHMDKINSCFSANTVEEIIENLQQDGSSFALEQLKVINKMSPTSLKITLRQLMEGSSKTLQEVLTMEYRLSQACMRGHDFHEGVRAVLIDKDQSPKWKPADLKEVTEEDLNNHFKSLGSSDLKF
Put plainly: microscale thermophoresis. Type of assay: binding. Conditions: GFP-tagged HIBCH; fit of three independent measurements. Background: Microscale thermophoresis detects binding through changes in fluorescence in a small temperature gradient.

Take `CCCCCCCCCCCCOC(=O)[C@@H](C)[C@@]1(O)[C@@H](O[C@@H]2OC[C@H](O)[C@H](O[C@@H]3OC[C@@H](O)[C@H](O)[C@H]3OC(=O)c3ccc(OC)cc3)[C@H]2OC(C)=O)C[C@H]2[C@@H]3CC=C4C[C@@H](O)CC[C@]4(C)[C@H]3CC[C@@]21C` [SBF-1]: the pKd was 4.45.
